Assay results: US4543350A, “Carcinostatic agent” (Sanyo Machine Works, Ltd., priority 1982, dated 1985)
Values joined by “and” are separate entries in the source; they are usually repeats but may differ in a detail not shown here. Equal entries are not always repeated.

What was measured:
[1] = tested on: Colon 26 (Balb/C Colon cancer); assay: Colon 26 transplanted subcutaneously to Balb/C mice: tumor weight and survival rate; assay type: in vivo; details: Colon 26 s.c. in Balb/C mice; Eisenin i.p. 5 mg per animal every other day three times
From the text: (§1) The animals used as experimental materials were Balb/C mice and nude mice, and the tumors used were Colon (Balb/C Colon cancer) and Sarcoma 180.
a. 1,000,000 Cells of Colon 26 were transplanted subcutaneously to Balb/C mice.

[2] = tested on: Sarcoma 180; assay: Sarcoma 180 transplanted subcutaneously to Balb/C mice: tumor weight; assay type: in vivo; details: Sarcoma 180 s.c. in Balb/C mice; Eisenin i.p. and orally 5 mg per animal every other day three times
From the text: as §1

[3] = tested on: Colon 26; assay: Sensitivity test: inclusion of tritium thymidine, uridine and leucine into cultured Colon 26; assay type: cell-based; details: for Average Counts per Minute, Leucine / Counts per Minute in the Case of Leucine: leucine (protein); for Average Counts per Minute, Leucine / Counts per Minute in the Case of Leucine / Average Counts per Minute, Tritium Thymidine / Counts per Minute in the Case of Tritium Thymidine / Average Counts per Minute, Uridine / Counts per Minute in the Case of Uridine: 3 days; for Counts per Minute in the Case of Leucine / Counts per Minute in the Case of Tritium Thymidine / Counts per Minute in the Case of Uridine: single counts; for Average Counts per Minute, Tritium Thymidine / Counts per Minute in the Case of Tritium Thymidine: tritium thymidine (DNA); for Average Counts per Minute, Uridine / Counts per Minute in the Case of Uridine: uridine (RNA)
Method: (1) Inhibition Index (I.I.) is calculated from the following equation, an
where I.I. exceeds 75%, it is judged effective.
- (2) Measurement is made on a scintillation counter.

[4] = tested on: BW 5174 (thymoma of AKR mouse); assay: Cytotoxicity test (51Cr release) of spleen and intraperitoneal cells of Eisenin-administered mice; assay type: cell-based
From the text: Further, the target cell employed was BW 5174 (thymoma of AKR mouse). The spleen cells and the intraperitoneal cells were respectively divided into the adherent cells and the non-adherent cells, and cytotoxicity was examined in each case.
(1) Percent Cytotoxicity (%) in Table 3 is based on the following
(2) Measurement is made by ^51 Cr release assay. (3) Acute Toxicit

[5] = tested on: Balb/C mice; assay: Acute toxicity test; assay type: in vivo; details: for No. of Death: 9 Balb/C mice
[6] = Effective dosage estimated from the various test results; assay type: in vivo; details: average body weight of Balb/C mice taken as 20 g
[7] = Water solubility; assay type: physicochemical

## L-Pyroglu-L-Gln-L-Ala [Eisenin]
[1]
  anti-tumor effect (weight of the tumor, survival rate; FIG. 1, FIG. 2): an anti-tumor effect of Eisenin is recognized
[2]
  anti-tumor effect (weight of the tumor; FIG. 5): a similar anti-tumor effect is recognized
[3]; Colon 26 culture, all concentrations and labels
  direct effect on tumor cells (sensitivity test; I.I. above 75% is judged effective): no direct effect of Eisenin on tumor cells
[3]; Eisenin 0.0001 mg/ml
  Average Counts per Minute, Leucine: 12232 CPM
  Counts per Minute in the Case of Leucine: 12952 CPM and 11936 CPM and 11808 CPM and 10952 CPM
  Average Counts per Minute, Tritium Thymidine: 229878 CPM
  Counts per Minute in the Case of Tritium Thymidine: 231236 CPM and 219336 CPM and 224786 CPM and 233612 CPM
  Average Counts per Minute, Uridine: 30793 CPM
  Counts per Minute in the Case of Uridine: 32836 CPM and 29585 CPM and 24135 CPM and 29958 CPM
[3]; Eisenin 0.001 mg/ml
  Average Counts per Minute, Leucine: 13743 CPM
  Counts per Minute in the Case of Leucine: 13620 CPM and 14230 CPM and 13379 CPM and 11355 CPM
  Average Counts per Minute, Tritium Thymidine: 218332 CPM
  Counts per Minute in the Case of Tritium Thymidine: 220010 CPM and 213816 CPM and 221170 CPM and 213017 CPM
  Average Counts per Minute, Uridine: 31169 CPM
  Counts per Minute in the Case of Uridine: 39415 CPM and 31675 CPM and 28671 CPM and 33161 CPM
[3]; Eisenin 0.01 mg/ml
  Average Counts per Minute, Leucine: 11478 CPM
  Counts per Minute in the Case of Leucine: 12285 CPM and 11020 CPM and 12097 CPM and 11318 CPM
  Average Counts per Minute, Tritium Thymidine: 238823 CPM
  Counts per Minute in the Case of Tritium Thymidine: 207474 CPM and 229569 CPM and 240628 CPM and 246273 CPM
  Average Counts per Minute, Uridine: 33039 CPM
  Counts per Minute in the Case of Uridine: 37043 CPM and 33211 CPM and 31498 CPM and 34408 CPM
[3]; Eisenin 0.1 mg/ml
  Average Counts per Minute, Leucine: 11318 CPM
  Counts per Minute in the Case of Leucine: 13311 CPM and 12566 CPM and 8076 CPM and 7076 CPM
  Average Counts per Minute, Tritium Thymidine: 198381 CPM
  Counts per Minute in the Case of Tritium Thymidine: 190120 CPM and 203872 CPM and 201151 CPM and 223845 CPM
  Average Counts per Minute, Uridine: 25426 CPM
  Counts per Minute in the Case of Uridine: 32774 CPM and 25271 CPM and 24222 CPM and 26786 CPM
[3]; Eisenin 1.0 mg/ml
  Average Counts per Minute, Leucine: 6521 CPM
  Counts per Minute in the Case of Leucine: 6826 CPM and 6150 CPM and 6587 CPM
  Average Counts per Minute, Tritium Thymidine: 170297 CPM
  Counts per Minute in the Case of Tritium Thymidine: 140430 CPM and 171170 CPM and 163554 CPM and 176167 CPM
  Average Counts per Minute, Uridine: 21107 CPM
  Counts per Minute in the Case of Uridine: 27088 CPM and 20903 CPM and 19954 CPM and 22463 CPM
[4]
  difference in cytotoxicity versus control group, intraperitoneal cells: a significant difference
[5]; Eisenin 3 g/kg intraperitoneally
  No. of Death: 1/9
[5]; Eisenin 6 g/kg intraperitoneally
  No. of Death: 7/9
[5]; intraperitoneal, Balb/C mice
  LD50: ~5000 mg/kg
[6]
  effective dosage as estimated from the test results: about 15 mg per 20 g
[7]
  solubility in water: water soluble
